Test results published in the METLIN SMRT retention time set (Domingo-Almenara et al. 2019).

Assay: gradient 5% acetonitrile 3 min, to 50% in 2 min, to 85% in 15 min, held 3 min, 100 µL/min
Details: column: Zorbax Extend-C18 2.1 x 50 mm; eluents: water / acetonitrile, 0.1% formic acid
Outline: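 Mixtures of ~100 pure standards were chromatographed on a Zorbax Extend-C18 column (2.1 × 50 mm, 1.8 μm) at 100 μL/min using water and acetonitrile, each with 0.1% formic acid. Detection used a quadrupole time-of-flight mass spectrometer in positive and negative ionization mode, and data collection spanned 3 months. Retention time was obtained from adduct peaks picked computationally and each checked manually.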

RP-LC retention time [s]	Compound
701	Cc1ccccc1Nc1c(-c2ccccc2O)nc2ccccn12
644	CNC(=O)c1ccc(Nc2c(-c3ccccc3)nc3cnccn23)cc1
1140	CC(C)Oc1ccc(-c2noc(Cn3c(=O)n(-c4ccc(Cl)cc4)c(=O)c4sccc43)n2)cc1
678	COCCn1cc(CCNC(=O)c2cncc(Br)c2)c2cccnc21
908	Cc1cccc(-c2nc(Cn3nnc(-c4nc(-c5ccccc5Cl)no4)c3C)c(C)o2)c1
904	COc1ccc(CN2CC3(CCN(S(=O)(=O)c4ccc(F)cc4)CC3)C2=O)cc1
756	COc1cccc(CCC(=O)Nc2cc(-c3cccnc3)no2)c1
804	CC(=O)Nc1ccc(C2(C(=O)NCc3ccc(F)cc3Cl)CCC2)cc1
858	COC(=O)c1cn(NC(=O)c2cc(-c3ccco3)nc3ccccc23)c(=O)c2ccccc12
858	NS(=O)(=O)c1cccnc1Nc1cc(F)cc(F)c1
614	Cc1ccc(-c2nc3nc(C)cc(N(CCO)CCO)n3n2)cc1
1030	CCCn1c(=O)sc2cc(S(=O)(=O)N3CCC(C(=O)Nc4ccc(F)c(F)c4)CC3)ccc21
996	CS(=O)(=O)N1CCC(C(=O)Nc2cccc(Br)c2)Oc2ccccc21 (stereo not given)
1070	O=S(=O)(Nc1ccc(Cl)cn1)c1cc(-c2noc(C3CCCC3)n2)cs1
834	COc1cc(CN(CC2CCCO2)C(=O)c2ccc(F)cc2)cc(OC)c1OC (stereo not given)
1160	Cc1ccc2c(c1)N(Cc1nc(-c3ccc(C)c(C)c3)no1)C(=O)CO2
812	COc1ccc(N2C(=O)CN(Cc3ccccc3C)[C@H]3CS(=O)(=O)C[C@H]32)cc1
656	O=C(Cc1ccc(Cl)cc1)NC1CCN(c2nnc3ccccn23)CC1
664	COc1ccc(CNC(=O)c2cc3c(=O)n(C)ccc3n2C)cc1
793	O=C(Nc1ccc(OCc2nnc(-c3ccccc3)o2)cc1)c1cccnc1Cl
893	O=C(Nc1ccc(Br)cc1)N1CCC(N2CCN(Cc3ccccc3)C2=O)CC1
846	Cc1ccc2[nH]cc(CCN3CC(C(=O)NCc4ccccc4Cl)CC3=O)c2c1 (stereo not given)

RP-LC retention time [s]	Compound
674	Cc1cc(C)c(NC(=O)Cn2cnc(C)c(C)c2=O)c(C)c1
1300	CC(C)(C)c1ccc(OCCCC(=O)Nc2nc(-c3ccccc3)cs2)cc1
937	O=C(c1ccc(F)c(F)c1)N1CCN(C(=O)c2nnn3c2COC(c2ccc(Cl)cc2)C3)CC1 (stereo not given)
609	COCCc1noc([C@@H]2CN(Cc3cccc(Cl)c3)C[C@H]2CO)n1
1190	Cc1cc(O)c(C(C)C)cc1NC(=O)Nc1cccc2ccccc12
1010	CCN1C(=O)COc2ccc(-c3nc(NC(=O)c4ccccc4C)sc3C)cc21
816	O=C(NCC1CC1)C1CCCN(c2nccn3nc(-c4ccccc4Cl)cc23)C1 (stereo not given)
1210	COc1ccc(-c2ncc3c(=O)n(Cc4ccccc4Cl)c(=O)n(C)c3n2)cc1
685	CN1C(=O)c2cccn2CC1CNC(=O)c1[nH]nc2c1COc1ccccc1-2 (stereo not given)
697	CCn1c(=O)n(CC(=O)N2CCN(c3ccccn3)CC2)c(=O)c2cnc(-c3ccccc3)nc21
701	CCN1C(=O)C2CC3(CCN(C(=O)c4cccs4)CC3)CN2C1=O (stereo not given)
695	CSc1nnc(-c2nn(C)c3c2CN(C(=O)c2c(F)cccc2F)CC3)n1C
1090	CC(C)n1c(=O)oc2cc(-c3noc(-c4cccc(C#N)c4)n3)ccc21
781	CN(C)C(=O)c1ccc2c(c1)N(CC(=O)NCCc1c[nH]c3ccccc13)C(=O)C1CCCCN21 (stereo not given)
705	Cc1ccc(CNC(=O)C2CCCN(c3nnc4ccccn34)C2)cc1 (stereo not given)
918	O=C(Cn1ccc2ccc(N3CCOCC3)nc21)NCc1cccc(Br)c1
627	CSc1cccc(NC(=O)CN2CCC3(CC2)N=C(c2ccc(Cl)cc2)C(=O)N3)c1
1110	Cc1ccc(-n2nc(N3CCCC(C(=O)NC4CCCCCCC4)C3)ccc2=O)cc1Cl (stereo not given)
771	CCOC(=O)c1ccc(NC(=O)Cn2c(=O)n(CC)c(=O)c3c2cc(C)n3C)cc1
1030	CCn1nnc2ccc(-c3noc(-c4ccc(OC)cc4)n3)cc21
846	Cc1nc2nc(-c3ccccc3)nn2c(C)c1CC(=O)N1CCC(C)CC1
634	O=C(Nc1ccc2c(c1)OCCO2)N1CCCC(c2nn[nH]n2)C1 (stereo not given)

RP-LC retention time [s]	Compound
635	O=C(c1ccc(F)c(F)c1)N1CCN(c2nc(CN3CCCC3)cs2)CC1
680	COC(=O)c1ccccc1NC(=O)N1CCN(c2nc3ccccc3n2C)CC1
983	CCC(=O)N(C1CCOCC1)C1CCN(S(=O)(=O)c2ccc(C(C)C)cc2)CC1
1200	Cc1c(Cl)cccc1NC(=O)C1CCCN(c2nc3c(s2)c(C)nn3-c2cccc(F)c2)C1 (stereo not given)
825	Cc1cccc(CNC(=O)C2c3ccccc3CC(=O)N2C(C)C)c1 (stereo not given)
803	CNC(=O)c1oc2ccccc2c1NC(=O)C1CCC1
784	COC(=O)C1=C(C)NC(=O)NC1c1cn(-c2ccccc2)nc1-c1ccc(Cl)cc1 (stereo not given)
774	COc1ccc(NC(=O)C2CCN(S(=O)(=O)c3ccc4[nH]c(=O)sc4c3)CC2)c(OC)c1
723	CNC(=O)N1CC(c2nc(-c3ccc(F)cc3)no2)C2(CCOCC2)C1 (stereo not given)
660	COC(=O)c1c(-c2ccc(Cl)cc2)noc1NCCN1CCN(C)CC1
981	COc1ccc(/C=C2\N=C(c3ccccc3)OC2=O)c(OCc2ccccc2)c1
992	Cc1ccccc1N1CCN(c2ncnc3scc(-c4cccs4)c23)CC1
651	CN1CCN(C(=O)C2CCN(c3nc4ccc(-c5ccsc5)nc4s3)CC2)CC1
583	CCn1c(=O)n(CC)c2cc(N3CCCC3)c(NC(=O)CC(=O)OC)cc21
720	COCCCNC(=O)N1CCCC(C)(C(=O)NCc2ccccc2C)C1 (stereo not given)
647	O=C(c1nnc(-c2ccc(S(=O)(=O)N3CCOCC3)cc2)o1)N1CCN(C2CCCCC2)CC1
702	O=C(NCc1ccc(F)cc1)C(=O)NCC1OCCN1C(=O)c1cccs1 (stereo not given)
932	COc1ccc(CN2CC3(CCN(S(=O)(=O)c4cc(C)ccc4C)CC3)C2=O)cc1
781	O=C(O)CCNS(=O)(=O)c1ccc(Cl)c(-c2nnc(-c3ccccc3)o2)c1
770	CC(=O)Nc1cccc(N2CC(C(=O)Nc3ccc(C(F)(F)F)cc3)CC2=O)c1 (stereo not given)
671	O=C(C1CCN(S(=O)(=O)N2CCCC2)CC1)N1CCN(Cc2noc3ccccc23)CC1
